Data on 2 compounds can be found in US8067418B2, “Tricyclic angiotensin II agonists” (Vicore Pharma AB, priority 2005, dated 2011).

In assay [1] the test system is duodenal mucosa. Nature of the assay: Test C: duodenal mucosal alkaline secretion assay. Format: in vivo. The note with it: co-administration with title compounds of the Examples, anaesthetised rats. From the text:
Duodenal Mucosal Alkaline Secretion Assay
Compounds were exposed to the duodenal mucosa in barbiturate-anaesthetised rats prepared for in situ titration of duodenal mucosal alkaline secretion, according to the methodology described by Flemström et al in Am. J. Physiol. (1982) 243, G348.

For assay [2], the target named is T1, AT2 receptor (Sus scrofa, UniProt A0A4X1W622).
T1 sequence (A0A4X1W622 1-362): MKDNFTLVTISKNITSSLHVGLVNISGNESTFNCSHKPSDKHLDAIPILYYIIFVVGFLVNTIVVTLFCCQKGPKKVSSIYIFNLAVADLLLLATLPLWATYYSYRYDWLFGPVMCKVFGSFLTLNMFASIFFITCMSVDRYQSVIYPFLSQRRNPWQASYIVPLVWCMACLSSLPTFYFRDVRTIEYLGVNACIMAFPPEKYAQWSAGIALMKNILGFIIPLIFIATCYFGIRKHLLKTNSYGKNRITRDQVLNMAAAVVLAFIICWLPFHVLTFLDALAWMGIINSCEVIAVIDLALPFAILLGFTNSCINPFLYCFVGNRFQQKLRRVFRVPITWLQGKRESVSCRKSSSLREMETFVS
The settings on record: read-out: dissociation constant (Kd) at AT2 receptor; Scatchard analysis, porcine myometrial membranes, [L]=0.057 nM.
Procedure: Myometrial membranes were prepared from porcine uteri according to the method by Nielsen et al (Clin. Exp. Pharm. Phys. (1997) 24, 309). […] Samples were incubated at 25° C. for 1 h, and binding was terminated by filtration through Whatman GF/B glass-fiber filter sheets using a Brandel cell harvester. The filters were washed with 3×3 mL of Tris-HCl (pH 7.4) and transferred to tubes. The radioactivity was measured using a gamma counter. […] The binding data were best fitted with a one-site fit. All experiments were performed at least in triplicate.

Take `Cc1cc(Cn2cnc3c2C[C@@H](C(=O)O)N(C(=O)C(c2ccccc2)c2ccccc2)C3)ccc1N(C)C` [PD123319]: the “effect of co-administration on the mucosal alkalisation stimulated by title compounds” value in assay [1] was “blocked”. In general, Kd refers to the concentration at which binding is half-saturated. “Asp^1-Arg^2-Val^3-Tyr^4-Ile^5-His^6-Pro^7-Phe^8 [Ang II]”: in assay [2], the dissociation constant Kd came to 0.7 ± 0.1 nM.
